From BindingDB's records for doi:10.1006/abio.2001.5466 (Kosan Biosciences, 2002)
Several values for one entry are separate records, joined by “and”; a condition that tells them apart may be missing. Identical values can stand only once.

Molecular target: T1, Promotilin (Homo sapiens, UniProt P12872)
T1 sequence (P12872 whole entry): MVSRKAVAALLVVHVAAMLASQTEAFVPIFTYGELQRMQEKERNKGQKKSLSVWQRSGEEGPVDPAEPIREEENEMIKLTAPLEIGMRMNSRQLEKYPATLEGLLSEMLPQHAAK

| Ki | Structure (SMILES) |
| --- | --- |
| 5.25 nM | CC[C@H](C)[C@H](NC(=O)[C@@H]1CCCN1C(=O)[C@@H](NC(=O)[C@@H](N)Cc1ccccc1)C(C)C)C(=O)N[C@@H](Cc1ccccc1)C(=O)N[C@H](C(=O)N[C@@H](Cc1ccc(O)cc1)C(=O)NCC(=O)N[C@@H](CCC(=O)O)C(=O)N[C@@H](CC(C)C)C(=O)N[C@@H](CCC(N)=O)C(=O)N[C@@H](CCCNC(=N)N)C(=O)N[C@@H](CCSC)C(=O)N[C@@H](CCC(N)=O)C(=O)N[C@@H](CCC(=O)O)C(=O)N[C@@H](CCCCN)C(=O)N[C@@H](CCC(=O)O)C(=O)N[C@@H](CCCNC(=N)N)C(=O)N[C@@H](CC(N)=O)C(=O)N[C@@H](CCCCN)C(=O)NCC(=O)N[C@@H](CCC(N)=O)C(=O)O)[C@@H](C)O [CAS_52906-92-0] |
| 19.1 nM and 47.9 nM | CC[C@H]1OC(=O)[C@H](C)[C@@H](O[C@H]2C[C@@](C)(OC)[C@@H](O)[C@H](C)O2)[C@H](C)[C@@H](O[C@@H]2O[C@H](C)C[C@H](N(C)C)[C@H]2O)[C@@]2(C)CC(C)=C(O2)[C@H](C)[C@@H](O)[C@]1(C)O [Erythromycin-A enol ether] |
| 1290 nM | CC[C@H]1OC(=O)[C@H](C)[C@@H](O[C@H]2C[C@@](C)(OC)[C@@H](O)[C@H](C)O2)[C@H](C)[C@@H](O[C@H]2O[C@@H](C)C[C@@H](N(C)C)[C@@H]2O)[C@](C)(O)C[C@@H](C)C(=O)[C@H](C)[C@@H](O)[C@]1(C)O [(3R,4S,5S,6R,7R,9R,11R,12R,13S,14R)-6-{[(2R,3S,4R,6S)-4-(dimethylamino)-3-hydroxy-6-methyloxan-2-yl]oxy}-14-ethyl-7,12,13-trihydroxy-4-{[(2R,4R,5S,6S)-5-hydroxy-4-methoxy-4,6-dimethyloxan-2-yl]oxy}-3,5,7,9,11,13-hexamethyl-1-oxacyclotetradecane-2,10-dione] |
